Settings: rat, in vivo, po, 10 mg
Method: The compound was dissolved in 5 ml of distilled water and then made up to 10 ml with distilled water to make a solution of 5 mg/ml concentration. For group 1 (G1), a dose volume of 2 ml formulation containing 10 mg of reference standard was administered to each rat irrespective of the body weight. Test formulation is as provided in example 5B. Test formulation was used as such as the formulation is in gel form for dermal application. 3 gm of the gel formulation containing 10 mg of test cynacobalamine is a test formulation.
One day prior to the dermal application of test item formulation for group 2 (G2) rats, the hair from the back of each rat was removed using hair removal cream and washed with saline. On the day of experiment, the shaved area was wiped with 70% isopropyl alcohol and dried. […] Immediately after application, the area was covered with non-absorbable cotton and was secured with adhesive tape.
Blood was collected through retro orbital plexus using capillary at specified time points i.e. 0.5 hr, 1.0 hr, 3.0 hr, 6.0 hr & 24.0 hrs post-dose. To collect the serum sample, the tubes were kept for 30 min. at room temperature and allowed for coagulation and then separated by centrifugation the tubes at 3000 rpm for 10 min at 4° C.

Cynacobalamine [Oral]
AUC (0-∞): 2775.15 ng·h/mL | Cmax: 205.67 ng/mL | Tmax: 1 h

— patent publication US20200016078A1, “COMPOSITION FOR TRANSDERMAL DELIVERY OF MICRONUTRIENTS AND METHOD OF PREPARATION THEREOF” (CERELIA NUTRITECH PVT LTD, priority 2017, published 2020)
